Measured values: patent US20040103452A1, “Inducible apomixis” (priority 2001, published 2004)

System: Arabidopsis thaliana Ler x transgenic WS (AtLTP1::AtSERK1) F1 plants
Experiment: SSLP analysis of F2 progeny for apomictic plants after 2,4-D application to F1 flower buds
Format: in vivo
Conditions: flower buds dipped in 2 μM 2,4-D 1 to 2 days pre-anthesis, repeated twice
Procedure: Transgenic T3 Arabidopsis thaliana ecotype WS plants, i.e. transgenic plants in the third generation after transformation, that are homozygous for the AtLTP1::AtSERK1 construct are used as male donor to pollinate Arabidopsis thaliana ecotype Landsberg erecta (L r) plants. The flower buds of the F1 plants at stage 11 to 12 (Smyth et al., The Plant Cell 2: 755, 1990) approximately 1 to 2 days pre-anthesis are dipped in an aqueous solution containing 2 μM 2,4-D supplemented with 0.04% (v/v) Triton X-100 as a surfactant as described by Vivian-Smith et al., (Plant Physiol. 121: 437, 1999). The treatment is repeated twice in a two-day period and plants are left to set F2 seeds. In parallel a control cross between wild-type Ler female and wild-type WS male plant is made to obtain F1 plants. Those F1 plants are designated as wild-type F1 plants and they are analysed in the same way as the transgenic F1 plants except that they are not auxin treated.
The F2 seeds are grown into seedlings and a few rosette leaves from each plant are used for DNA extraction as described by Ponce et al., Mol. Gen. Genet. 261: 408, 1999. Simple Sequence Length Polymorphism (SSLP) analysis is carried out by simultaneous amplification of 11 SSLP markers (see Table 1) using multiplex PCR with fluorescently labeled primers as described by Ponce et al. supra. […]

## O=C(O)COc1ccc(Cl)cc1Cl [2, 4 D, 2,4-dichlorophenoxyacetic acid]
AtLTP::AtSERK1 cross No 14 (line with lower SERK1 level), 144 F2 plants analyzed
  Plants h t rozygous for 11 SSLP markers Observed: 0
AtLTP::AtSERK1 cross No 15, 175 F2 plants analyzed
  Plants h t rozygous for 11 SSLP markers Observed: 2
